Measurements from ChEMBL document CHEMBL1127881 (Bioorg Med Chem Lett, 1994).

Key:
Assay type in all cases: tissue-based
[1] = biological target: Muscarinic acetylcholine receptor; assay: Compound was tested for its ability to inhibit muscarinic receptor in rat cerebral cortex using [3H]quinuclidinyl benzilate (QNB); Range is 4300-9500
[2] = biological target: Muscarinic acetylcholine receptor; assay: Compound was tested for its ability to inhibit muscarinic receptor in rat cerebral cortex using [3H]oxotremorine-M (OXO-M); Range is 120-220
[3] = biological target: Muscarinic acetylcholine receptor; assay: Compound was tested for its ability to inhibit muscarinic receptor in rat cerebral cortex using [3H]quinuclidinyl benzilate (QNB); Range is 530-1100
[4] = biological target: Muscarinic acetylcholine receptor; assay: Compound was tested for its ability to inhibit muscarinic receptor in rat cerebral cortex using [3H]oxotremorine-M (OXO-M); Range is 48-100
[5] = biological target: Muscarinic acetylcholine receptor; assay: Compound was tested for its ability to inhibit muscarinic receptor in rat cerebral cortex using [3H]oxotremorine-M (OXO-M); Range is 28-58
[6] = biological target: Muscarinic acetylcholine receptor; assay: Compound was tested for its ability to inhibit muscarinic receptor in rat cerebral cortex using [3H]oxotremorine-M (OXO-M); Range is 240-290
[7] = biological target: Muscarinic acetylcholine receptor; assay: Compound was tested for its ability to inhibit muscarinic receptor in rat cerebral cortex using [3H]quinuclidinyl benzilate (QNB);
[8] = biological target: Muscarinic acetylcholine receptor; assay: Compound was tested for its ability to inhibit muscarinic receptor in rat cerebral cortex using [3H]quinuclidinyl benzilate (QNB); Range is 3400-4200
[9] = biological target: Muscarinic acetylcholine receptor; assay: Compound was tested for its ability to inhibit muscarinic receptor in rat cerebral cortex using [3H]oxotremorine-M (OXO-M); Range is 21-36
[10] = biological target: Muscarinic acetylcholine receptor; assay: Compound was tested for its ability to inhibit muscarinic receptor in rat cerebral cortex using [3H]quinuclidinyl benzilate (QNB); Range is 730-1300
[11] = biological target: Muscarinic acetylcholine receptor; assay: Compound was tested for its ability to inhibit muscarinic receptor in rat cerebral cortex using [3H]oxotremorine-M (OXO-M); Range is 62-70
[12] = biological target: Muscarinic acetylcholine receptor; assay: Compound was tested for its ability to inhibit muscarinic receptor in rat cerebral cortex using [3H]quinuclidinyl benzilate (QNB); Range is […]
[13] = biological target: Muscarinic acetylcholine receptor; assay: Compound was tested for its ability to inhibit muscarinic receptor in rat cerebral cortex using [3H]quinuclidinyl benzilate (QNB); Range is 330-360
[14] = biological target: Muscarinic acetylcholine receptor; assay: Compound was tested for its ability to inhibit muscarinic receptor in rat cerebral cortex using [3H]oxotremorine-M (OXO-M); Range is 18-21
[15] = biological target: Muscarinic acetylcholine receptor; assay: Compound was tested for its ability to inhibit muscarinic receptor in rat cerebral cortex using [3H]quinuclidinyl benzilate (QNB); Range is 9700-23000
[16] = biological target: Muscarinic acetylcholine receptor; assay: Compound was tested for its ability to inhibit muscarinic receptor in rat cerebral cortex using [3H]oxotremorine-M (OXO-M); Range is 65-260

**Q.** Which results are given for `CO/N=C(/C#N)C1=CCCN(C)C1`?
**A.** IC50 [1]: 4500 nM; IC50 [2]: 150 nM

**Q.** Which results are given for `CO/N=C(/Cl)C1=CC2CCN(C1)C2` (configuration not stated)?
**A.** IC50 [3]: 770 nM; IC50 [4]: 69 nM

**Q.** How did the IC50 [5] turn out when `CO/N=C(/F)C1=CCCN(C)C1` was run?
**A.** 39 nM

**Q.** For `CO/N=C(/Cl)C1=CCCN(C)C1`, which IC50 [6] is on record?
**A.** 260 nM

**Q.** And the IC50 [7]?
**A.** 2800 nM

**Q.** With `COC(=O)C1=CC2CCN(C1)C2` (configuration not stated) as the compound, how does the IC50 [8] read?
**A.** 3800 nM

**Q.** And the IC50 [9]?
**A.** 27 nM

**Q.** `CO/N=C\C1=CC2CCN(C1)C2` (configuration not stated) was tested. Which IC50 [10] did it give?
**A.** 960 nM

**Q.** And the IC50 [11]?
**A.** 64 nM

**Q.** `CO/N=C(/F)C1=CC2CCN(C1)C2` (configuration not stated) was tested. Which IC50 [12] did it give?
**A.** 630 nM

**Q.** And the IC50 [5]?
**A.** 26 nM

**Q.** With `CO/N=C(/C#N)C1=CC2CCN(C1)C2` (configuration not stated) as the compound, how does the IC50 [13] read?
**A.** 350 nM

**Q.** What about the IC50 [14] of the same compound?
**A.** 20 nM

**Q.** What does the source list for `CO/N=C\C1=CCCN(C)C1`?
**A.** IC50 [15]: 14000 nM; IC50 [16]: 110 nM
